Like-named read-outs stand apart in the source and are kept apart here.
Columns and labels:
Type in all cases: cell-based
IKZF2 [1] = target: T1, IKZF2 (Homo sapiens, UniProt Q96SW2+Q9UKS7); assay: Human whole blood IKZF2 degradation (flow cytometry, CD4/CD25/Foxp3+ Treg cells); parameters: endogenous in cells; conditions: 24 hrs incubation, IKZF2 MFI in CD4/CD25/Foxp3+ Treg cells, flow cytometry; for DC50: read-out: IKZF2 EC50
Procedure, shortened: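 Fresh healthy-donor human whole blood stimulated with CD3/CD28 activator and serially diluted compound for 24 hrs at 37° C. IKZF2 MFI in CD4/CD25/Foxp3+ Tregs (IKZF1 MFI in CD4+ T cells) measured by flow cytometry after RBC lysis, fixation, permeabilization. EC50 and Dmax versus DMSO wells.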
Target sequence in this assay (Q9UKS7 whole entry): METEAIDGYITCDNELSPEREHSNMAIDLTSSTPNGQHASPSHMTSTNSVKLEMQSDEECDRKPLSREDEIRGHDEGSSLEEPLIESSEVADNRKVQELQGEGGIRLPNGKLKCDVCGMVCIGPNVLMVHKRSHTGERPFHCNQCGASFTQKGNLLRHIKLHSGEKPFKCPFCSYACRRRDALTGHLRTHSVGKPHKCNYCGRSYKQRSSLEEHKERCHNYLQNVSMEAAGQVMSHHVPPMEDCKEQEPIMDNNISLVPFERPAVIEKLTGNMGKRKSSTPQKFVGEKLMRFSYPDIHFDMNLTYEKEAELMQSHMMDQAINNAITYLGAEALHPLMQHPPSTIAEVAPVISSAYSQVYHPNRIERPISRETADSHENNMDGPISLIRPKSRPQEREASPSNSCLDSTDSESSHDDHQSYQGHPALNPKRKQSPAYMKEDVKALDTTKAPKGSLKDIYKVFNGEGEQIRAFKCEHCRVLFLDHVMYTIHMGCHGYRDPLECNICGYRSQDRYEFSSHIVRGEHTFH
Target sequence in this assay (Q96SW2 whole entry): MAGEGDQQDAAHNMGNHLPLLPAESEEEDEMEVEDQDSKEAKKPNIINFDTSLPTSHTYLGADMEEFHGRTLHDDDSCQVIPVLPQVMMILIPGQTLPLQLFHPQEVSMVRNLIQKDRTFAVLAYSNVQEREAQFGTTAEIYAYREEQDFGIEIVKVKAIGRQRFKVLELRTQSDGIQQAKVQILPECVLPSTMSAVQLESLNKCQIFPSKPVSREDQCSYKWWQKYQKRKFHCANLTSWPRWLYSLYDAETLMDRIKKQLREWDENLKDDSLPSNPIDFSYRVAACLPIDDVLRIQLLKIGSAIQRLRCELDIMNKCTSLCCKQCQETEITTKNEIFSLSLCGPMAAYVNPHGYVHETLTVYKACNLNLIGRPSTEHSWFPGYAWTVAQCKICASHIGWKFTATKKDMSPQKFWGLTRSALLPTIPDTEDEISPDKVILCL
Target sequence in this assay (Q16531 whole entry partner): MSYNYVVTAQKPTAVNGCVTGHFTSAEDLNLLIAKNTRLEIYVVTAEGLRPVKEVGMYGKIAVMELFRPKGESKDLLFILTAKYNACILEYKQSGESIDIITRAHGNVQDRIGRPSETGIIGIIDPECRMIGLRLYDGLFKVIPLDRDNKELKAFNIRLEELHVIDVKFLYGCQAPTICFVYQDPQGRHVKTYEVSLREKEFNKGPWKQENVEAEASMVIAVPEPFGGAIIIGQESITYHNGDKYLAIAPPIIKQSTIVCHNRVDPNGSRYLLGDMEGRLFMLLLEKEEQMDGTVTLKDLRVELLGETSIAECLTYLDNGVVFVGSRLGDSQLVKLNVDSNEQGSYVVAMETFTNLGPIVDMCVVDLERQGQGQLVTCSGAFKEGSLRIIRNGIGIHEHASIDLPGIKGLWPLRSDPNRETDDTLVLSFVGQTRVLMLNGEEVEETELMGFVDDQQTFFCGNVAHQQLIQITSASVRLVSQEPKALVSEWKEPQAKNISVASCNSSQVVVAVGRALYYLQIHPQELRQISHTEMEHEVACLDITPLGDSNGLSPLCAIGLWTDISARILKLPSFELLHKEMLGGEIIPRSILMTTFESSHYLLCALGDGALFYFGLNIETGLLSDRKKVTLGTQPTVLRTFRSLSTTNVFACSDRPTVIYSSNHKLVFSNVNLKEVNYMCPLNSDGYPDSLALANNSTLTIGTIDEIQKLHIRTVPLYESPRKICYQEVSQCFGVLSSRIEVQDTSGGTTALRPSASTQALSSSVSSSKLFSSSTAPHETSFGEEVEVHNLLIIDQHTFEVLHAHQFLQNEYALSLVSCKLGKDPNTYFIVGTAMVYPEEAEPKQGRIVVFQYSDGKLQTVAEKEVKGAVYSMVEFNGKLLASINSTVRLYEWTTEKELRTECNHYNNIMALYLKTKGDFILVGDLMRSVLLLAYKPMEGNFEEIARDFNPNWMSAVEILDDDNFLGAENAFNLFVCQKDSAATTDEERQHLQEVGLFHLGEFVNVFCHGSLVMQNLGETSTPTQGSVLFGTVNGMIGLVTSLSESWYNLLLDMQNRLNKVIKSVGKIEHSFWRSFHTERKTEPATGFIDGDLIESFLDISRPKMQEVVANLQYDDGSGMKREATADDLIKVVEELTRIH

IKZF2 [2] = target: T1, IKZF2; assay: HEK293 IKZF2 degradation kinetics (HiBiT, timepoints 1-24 h); parameters: expressed in transfected cells; conditions: HEK293, IKZF2; timepoints 1, 2, 3, 4.5 and 24 hour; read-out: Maximum degradation rate Kinact (converted)
Protocol: The assay technology and principles for evaluating IKZF2 degradation kinetics in HEK293 cells was identical to the HEK293 degradation assay as described above. Additional details are briefly described below.
On Day 1, Cells were grown and induced the same as described above. On Days 2 and 3, compounds for testing were dispensed via ECHO and cells were lifted and plated into compound-spotted assay plates as above. Plates were returned to the 37° C. incubator until addition of Nano-Glo lytic reagent at 1, 2, 3, 4.5, and 24 hour timepoints. At these timepoints, plates were read on Envision reader as above.
All raw data was normalized to DMSO control (final concentration: 0.5%) wells as POC and plotted out as a function of time to generate the degradation rate constant (K) value. The maximum degradation rate (Kinact) was determined by plotting the K value as a function of concentration for each compound tested. Kinact values are shown in Table 25 and the degradation rate plots as well as timecourse of degradation are shown for select compounds in FIG. 1A, FIG. 1B, FIG. 2A and FIG. 2B.
Target sequence in this assay (Q9UKS7 1-500 isoform Q9UKS7-2): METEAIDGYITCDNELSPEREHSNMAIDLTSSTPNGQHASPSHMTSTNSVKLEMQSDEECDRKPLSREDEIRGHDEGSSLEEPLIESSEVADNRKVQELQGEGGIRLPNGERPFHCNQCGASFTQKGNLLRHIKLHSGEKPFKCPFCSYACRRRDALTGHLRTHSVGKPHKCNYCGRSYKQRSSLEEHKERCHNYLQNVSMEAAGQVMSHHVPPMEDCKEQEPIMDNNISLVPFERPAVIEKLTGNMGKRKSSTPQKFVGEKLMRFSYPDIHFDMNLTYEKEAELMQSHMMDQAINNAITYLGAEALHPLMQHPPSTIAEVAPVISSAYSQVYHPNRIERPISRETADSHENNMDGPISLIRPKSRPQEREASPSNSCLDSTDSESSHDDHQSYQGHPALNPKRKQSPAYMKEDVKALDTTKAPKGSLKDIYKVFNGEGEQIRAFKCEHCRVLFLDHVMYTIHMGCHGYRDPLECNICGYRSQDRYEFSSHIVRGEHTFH
Target sequence in this assay (Q96SW2 whole entry): as the sequence (Q96SW2 whole entry) above
Target sequence in this assay (Q16531 whole entry partner): as the sequence (Q16531 whole entry partner) above

IKZF2 [3] = target: T1, IKZF2; assay: HEK293 HiBiT in vitro degradation of IKZF2; parameters: expressed in transfected cells; conditions: for Dmax: HEK293, HEK293 HiBiT; for DC50: 18-24 hr incubation, normalized to DMSO control, read-out: IKZF2 EC50
Procedure, shortened: (§1)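 Cellular target level is measured as luminescence from an 11-residue HiBiT tag fused via a linker to the C-terminus of IKZF1, IKZF2 or SALL4 in stable Flp-In T-REx HEK293 pools. Reporter expression is induced overnight with doxycycline ([…] final), and compounds act for 18-24 h before lytic detection.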
Target sequence in this assay (Q9UKS7 1-500 isoform Q9UKS7-2): as the sequence (Q9UKS7 1-500 isoform Q9UKS7-2) above
Target sequence in this assay (Q96SW2 whole entry): as the sequence (Q96SW2 whole entry) above
Target sequence in this assay (Q16531 whole entry partner): as the sequence (Q16531 whole entry partner) above

IKZF1 = target: T2, IKZF1 (Homo sapiens, UniProt Q13422+Q96SW2); assay: HEK293 HiBiT in vitro degradation of IKZF1; conditions: for Dmax: HEK293, HEK293 HiBiT, maximum degradation at the highest concentration tested; for DC50: HEK293 HiBiT, 18-24 hr incubation, normalized to DMSO control, read-out: IKZF1 EC50
T2 construct: expressed in transfected cells
T2 sequence (Q13422 whole entry): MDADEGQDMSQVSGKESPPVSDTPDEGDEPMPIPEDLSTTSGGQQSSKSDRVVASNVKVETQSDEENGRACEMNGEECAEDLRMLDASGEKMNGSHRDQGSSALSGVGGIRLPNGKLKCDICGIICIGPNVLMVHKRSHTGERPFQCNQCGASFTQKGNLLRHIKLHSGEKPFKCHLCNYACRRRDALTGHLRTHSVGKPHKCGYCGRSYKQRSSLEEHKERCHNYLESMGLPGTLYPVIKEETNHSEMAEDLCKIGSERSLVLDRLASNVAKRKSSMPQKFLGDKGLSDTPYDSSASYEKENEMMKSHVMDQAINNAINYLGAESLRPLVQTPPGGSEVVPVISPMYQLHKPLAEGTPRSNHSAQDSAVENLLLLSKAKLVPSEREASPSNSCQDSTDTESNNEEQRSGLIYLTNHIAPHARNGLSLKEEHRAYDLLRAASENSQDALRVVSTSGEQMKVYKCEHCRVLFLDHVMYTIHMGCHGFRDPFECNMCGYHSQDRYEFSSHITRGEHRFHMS
T2 sequence (Q96SW2 whole entry): as the sequence (Q96SW2 whole entry) above
T2 sequence (Q16531 whole entry partner): as the sequence (Q16531 whole entry partner) above
Procedure, shortened: as §1

SALL4 = target: T3, SALL4 (Homo sapiens, UniProt Q96SW2+Q9UJQ4); assay: HEK293 HiBiT in vitro degradation of SALL4; conditions: for DC50: 18-24 hr incubation, normalized to DMSO control, read-out: SALL4 EC50
T3 construct: expressed in transfected cells
T3 sequence (Q9UJQ4 whole entry): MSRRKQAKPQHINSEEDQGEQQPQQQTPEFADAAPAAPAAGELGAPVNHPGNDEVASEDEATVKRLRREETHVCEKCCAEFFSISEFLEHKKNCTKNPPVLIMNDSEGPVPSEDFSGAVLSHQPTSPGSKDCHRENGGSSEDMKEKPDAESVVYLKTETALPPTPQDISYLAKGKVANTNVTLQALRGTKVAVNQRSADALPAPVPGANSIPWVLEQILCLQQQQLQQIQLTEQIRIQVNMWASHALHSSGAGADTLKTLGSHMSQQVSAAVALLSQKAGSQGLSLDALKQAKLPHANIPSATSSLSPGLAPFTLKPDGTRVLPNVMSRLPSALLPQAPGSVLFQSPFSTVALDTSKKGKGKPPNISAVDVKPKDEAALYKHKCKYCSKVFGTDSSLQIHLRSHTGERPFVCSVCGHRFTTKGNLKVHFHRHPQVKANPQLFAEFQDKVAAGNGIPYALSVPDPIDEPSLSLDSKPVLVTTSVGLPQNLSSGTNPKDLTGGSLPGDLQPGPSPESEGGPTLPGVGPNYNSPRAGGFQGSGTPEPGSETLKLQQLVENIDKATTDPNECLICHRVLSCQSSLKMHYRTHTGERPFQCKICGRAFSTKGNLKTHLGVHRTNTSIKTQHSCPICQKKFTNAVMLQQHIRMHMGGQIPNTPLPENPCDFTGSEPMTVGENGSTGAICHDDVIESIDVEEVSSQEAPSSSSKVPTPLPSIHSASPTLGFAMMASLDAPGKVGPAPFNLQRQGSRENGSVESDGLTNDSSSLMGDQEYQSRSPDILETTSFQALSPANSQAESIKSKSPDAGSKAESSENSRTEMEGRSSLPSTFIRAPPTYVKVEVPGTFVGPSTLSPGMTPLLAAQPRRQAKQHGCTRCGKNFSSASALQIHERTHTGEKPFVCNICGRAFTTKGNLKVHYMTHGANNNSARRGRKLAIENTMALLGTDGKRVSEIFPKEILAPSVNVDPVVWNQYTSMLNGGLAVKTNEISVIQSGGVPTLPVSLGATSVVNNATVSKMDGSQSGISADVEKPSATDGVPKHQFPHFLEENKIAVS
T3 sequence (Q96SW2 whole entry): as the sequence (Q96SW2 whole entry) above
T3 sequence (Q16531 whole entry partner): as the sequence (Q16531 whole entry partner) above
Protocol: In vitro degradation of IKZF1, IKZF2, and SALL4 was measured using HiBiT protein tagging and detection technology (Promega).
HiBit technology was used to develop the quantitative assays to measure the cellular IKZFs level by tagging an 11 amino acid HiBit peptides […] to the protein of interest. Reporter plasmids were generated by fusing a linker sequence ([…]) followed by the HiBit tag at the C-terminus of IKZF1, IKZF2, and SALL4. The fusion fragments were subsequently cloned into pcDNA5 pcDNA™5/FRT/TO plasmids (Thermo Fisher, cat #V652020) downstream of the tetracycline operator. The resulting plasmids were co-transfected with pOG44 Flp-Recombinase Expression Vector (Thermo Fisher, cat #V600520) into Flp-In™ T-REx HEK293 line (Thermo Fisher, cat #R78077) and a stable cell pool was selected by adding 100 µg/ml of Hygromycin (Thermo Fisher, cat #10687010). The reporter cell enabled Tet-On inducible reporter expression from a single copy of the integrated gene.
On Day 1, Cells were grown to ˜80% confluency in tissue culture medium (DMEM Glutamax (Gibco10569), 10% Tet free FBS (Takara 631106), and PenStrep Glutamin (Gibco 10378)) in tissue culture flasks. Doxycycline was then added to a final concentration of […] to induce reporter expression at 37° C. overnight.
On Day 2, 125 nL of serially-diluted solution of testing compounds were dispensed into 384-well white solid assay plates via ECHO acoustic liquid handler. Cells were lifted by 0.25% Trypsin (Gibco 25200) then pelleted by centrifugation (Beckman Avanti J-E) at 500×g for 5 min. Cell pellets were resuspended in TC medium at the concentration of 3e5/mL and 25 μL of cell suspension were added into each well of compound-spotted plates. The plates were returned to a 37° C. incubator overnight (18-24 hr).
On Day 3, assay plates were removed from the tissue culture incubator and 25 μL of Nano-Glo lytic detection system (Promega, cat #N3030) was added to each well. Plates were incubated at r.t. for 3 min with shaking, and luminescence was read using an Envision reader (Perkin Elmer).
To assess the IKZF1, IKZF2, and SALL4 degrader potential of exemplified compounds of this disclosure and certain Reference Compounds EC50 and Dmax values were determined for the compounds of Examples 1 to 383 and Reference Compounds A-1, B-1, B-2, B-3, B-4, and C-1 in the HiBiT assays. Asterisks (*) indicate examples for which the data shown represents an average of n≥3.

[4] = test system: IL-2 production in Jurkat cells; assay: Jurkat IL-2 functional assay (ELISA of supernatants); conditions: Homo sapiens; for maximal fold induction: Jurkat, top of the curve fit; for EC50: overnight incubation
Protocol: (§2) Jurkat cell line (ATCC, Clone E6-1), highly expresses IKZF2 and lends it an appropriate system to screen degradation along with a functional readout. Jurkat cells were grown to 80% confluency in TC medium (RPMI containing glutamax, 10% FBS, 1% NEAA, and 1% Pen/Strep Glutamin in tissue culture flasks.
(§3) The cells were spun down at 400 g for 5 mins and counted. 100 K cells per well were added to a 96-well plate. The compounds were introduced starting at 10 μM and dilutions were made 1:10 for each compound. 100 μL of compound was added to each well for a 12-point titration. The cells were incubated at 37° C. with 5% CO2 overnight.
The following day, supernatants were collected for a functional readout using ELISA. The supernatants were diluted 1:2 and added to appropriate Human IL-2 plates for IL-2 functional readout.
The top of the curve fit for each compound is reported as the IL-2 ‘fold increase over DMSO control.’

IKZF2 [5] = target: T1, IKZF2; assay: Jurkat IKZF2 degradation (flow cytometry); parameters: endogenous in cells; conditions: Jurkat cells, overnight incubation; for DC50: flow cytometry, normalized to DMSO control, read-out: IKZF2 Degradation EC50; for Dmax: maximum degradation at the highest concentration tested
Protocol: as §2, §3
Target sequence in this assay (Q9UKS7 whole entry): as the sequence (Q9UKS7 whole entry) above
Target sequence in this assay (Q96SW2 whole entry): as the sequence (Q96SW2 whole entry) above
Target sequence in this assay (Q16531 whole entry partner): as the sequence (Q16531 whole entry partner) above
Cells were stained with appropriate surface and intracellular antibodies and acquired by flow cytometry and analysed for degradation. […]

[6] = maximum degradation at the highest concentration tested
[7] = ELISA of supernatants, read-out: IL-2 Production Fold increase over DMSO control
[8] = read-out: increase in IL-2 production relative to DMSO control

| SMILES | Dmax (IKZF2 [1]) | DC50 (IKZF2 [1]) | kinact (IKZF2 [2]) | Dmax (IKZF2 [3]; [6]) | DC50 (IKZF2 [3]; HEK293 HiBiT) | Dmax (IKZF1) | DC50 (IKZF1) | DC50 (SALL4) | maximal fold induction [4, 7] | maximal fold induction [4, 8] | EC50 ([4]; ELISA of supernatants) | DC50 (IKZF2 [5]) | Dmax (IKZF2 [5]) | IKZF2 Dmax (IKZF2 [1]) | IKZF2 Dmax (IKZF2 [3]; HEK293 HiBiT, maximum degradation at the highest concentration tested) | Dmax (SALL4; [6]) |
| --- | --- | --- | --- | --- | --- | --- | --- | --- | --- | --- | --- | --- | --- | --- | --- | --- |
| O=C1CC[C@@H](N2Cc3cc(C[C@H]4CCCC[C@@H]4NC4CCC(F)(F)CC4)ccc3C2=O)C(=O)N1 (single isomer, unassigned) [Example 329] | 97% | 4 nM | 0.000158 s⁻¹ | 98% | 2 nM | 53% | 50 nM | > 10000 nM | – | – | – | – | – | – | – | – |
| CCN[C@H]1CCCC[C@@H]1Cc1ccc2c(c1)CN(C1CCC(=O)NC1=O)C2=O (stereo partly drawn) [Example 35, 3-(5-(((1R,2S)-2-(ethylamino)cyclohexyl)methyl)-1-oxoisoindolin-2-yl)piperidine-2,6-dione] | – | – | – | 94% | 29 nM | 31% | 261 nM | – | 1.9 | ≥ 1.9 | 141 nM | 3.9 nM | 83% | – | – | – |
| O=C1CCC(N2Cc3c(ccc(C[C@H]4CCCC[C@@H]4NC4CCC(F)(F)CC4)c3F)C2=O)C(=O)N1 (stereo partly drawn) [Example 84, 3-(5-(((1R,2S)-2-((4,4-difluorocyclohexyl)amino)cyclohexyl)methyl)-4-fluoro-1-oxoisoindolin-2-yl)piperidine-2,6-dione] | 93% | 1 nM | – | 97% | 1 nM | 68% | 28 nM | – | 2.6 | ≥ 1.9 | 0.2 nM | 0.05 nM | 97% | – | – | – |
| O=C1CCC(N2Cc3c(ccc(C[C@H]4OCCC[C@@H]4NC4CCC(F)(F)CC4)c3F)C2=O)C(=O)N1 (stereo partly drawn) [Example 94, 3-(5-(((2R,3S)-3-((4,4-difluorocyclohexyl)amino)tetrahydro-2H-pyran-2-yl)methyl)-4-fluoro-1-oxoisoindolin-2-yl)piperidine-2,6-dione] | 90% | 7 nM | – | 96% | 10 nM | – | > 10000 nM | – | 2.1 | ≥ 1.9 | 2.3 nM | 2 nM | 88% | – | – | – |
| CC(N[C@H]1CCCC[C@@H]1Cc1ccc2c(c1)CN(C1CCC(=O)NC1=O)C2=O)C1CCC1 (some centres unmarked) [Example 218] | – | 4 nM | 0.000131 s⁻¹ | – | 2 nM | 34% | 626 nM | – | 2.2 | ≥ 1.9 | 8 nM | 0.8 nM | 93% | 97% | 95% | – |
| O=C1CC[C@H](N2Cc3c(ccc(C[C@H]4OCCC[C@@H]4N[C@H]4CC[C@H](F)CC4)c3F)C2=O)C(=O)N1 [Example 369] | – | – | 0.000106 s⁻¹ | 97% | 5 nM | – | > 1000 nM | > 10000 nM | 2 | ≥ 1.9 | 0.03 nM | 0.1 nM | 90% | – | – | – |
| O=C1CCC(N2Cc3cc(C4CCC(Cc5ccccc5)CC4)ccc3C2=O)C(=O)N1 (centres unmarked) [Example A-1] | 82% | – | 3.89e-05 s⁻¹ | 82% | – | – | – | – | 1.6 | – | 10 nM | – | 61% | – | – | 63% |
| CCN[C@H]1CCCC[C@@H]1Oc1ccc2c(c1)CN(C1CCC(=O)NC1=O)C2=O (some centres unmarked) [Example B-2] | – | – | – | 93% | – | – | – | – | 1.8 | – | 18 nM | – | 83% | – | – | – |
| O=C1CCC(N2Cc3cc(O[C@H]4CCCC[C@@H]4NC4CCC(F)(F)CC4)ccc3C2=O)C(=O)N1 (some centres unmarked) [Example B-4] | 97% | – | 0.000144 s⁻¹ | 98% | – | – | – | – | 1.8 | – | 7.8 nM | – | 94% | – | – | – |

— patent US11897862B2 (Gilead Sciences, Inc., priority 2022, dated 2024)
